According to patent publication US9187726B2, “Culturing a microorganism in a medium with an elevated level of a carboxylate counterion source” (ExxonMobil Research and Engineering Company, priority 2010, dated 2015):

Experiments:
PH-SGI-E-0166 = test: Long-term effect of calcium addition on fatty acid-producing strain, three copies Cc1FatB1; assay type: cell-based, Synechocystis sp. PCC 6803; details: ~10× calcium concentration; culture without extra calcium completely bleached after ~12 days of IPTG induction
Source text: (§1) FIG. 2 provides data on the growth of genetically modified cyanobacterial strains producing free fatty acids in calcium-supplemented media. FIG. 2a is a graph showing the post-IPTG induction growth of cultures (as measure by OD at 730 nm) of Synechocystis PCC 6803 transformed with one (PH-SGI-E-0159-1; “159”) or three (PH-SGI-E-0166-1; “166”) copies of the Cc1FatB1 Cuphea carthagenensis acyl-ACP thioesterase (diamonds, strain 159 in standard BG-11 media; squares, strain 159 in standard BG-11 media supplemented to 10-fold the amount of calcium of BG-11 (˜2.5 mM); triangles, cyanobacterial strain 166 in standard BG-11 media; circles, strain 166 in standard BG-11 media supplemented to 10-fold the amount of calcium of BG-11 (˜2.5 mM)). FIG. 2b is a graph showing the post-IPTG induction free fatty acid production in mg/L of cultures of Synechocystis strains transformed with one (PH-SGI-E-0159-1; “159”) or three (PH-SGI-E-0166-1; “166”) copies of the Cc1FatB1 Cuphea carthagenensis acyl-ACP thioesterase (diamonds, strain 159 in standard BG-11 media; squares, strain 159 in standard BG-11 media supplemented to 10-fold the amount of calcium of BG-11 (˜2.5 mM); triangles, cyanobacterial strain 166 in standard BG-11 media; circles, strain 166 in standard BG-11 media supplemented to 10-fold the amount of calcium of BG-11 (˜2.5 mM)). […]

PH-SGI-E-0159 = test: Long-term effect of calcium addition on fatty acid-producing strain, one copy Cc1FatB1; assay type: cell-based, Synechocystis sp. PCC 6803; details: with or without extra calcium addition
Source text: as §1

[1] = test system: SGI-004 Synechococcus strain; test: Tolerance to free fatty acids in media with increased calcium and magnesium; assay type: cell-based; details: for effect on free fatty acid tolerance / viability: added to 2X and 4X of standard BG-11
Experimental: (§2) The Synechocystis sp. PCC 6803 strain and the SGI-004 Synechococcus strain were both tested to see if calcium and/or magnesium could alleviate the toxic effects of free fatty acid in the media. BG-11 media was used to culture the cells in multiwall plates. Calcium (CaCl2) and magnesium (MgCl2) were added alone and in combination to achieve a concentration two-fold (2×) and four-fold (4×) that of standard BG-11 media. […] PCC 6803. (Table 3). […] At a concentration double that of the BG-11 recipe (approximately 0.5 mM), calcium added a tolerance of up to about 100 mg/L more of free fatty acid for both of the strains.

[2] = test system: Synechocystis sp. PCC 6803; test: as above; assay type: cell-based; details: for effect on free fatty acid tolerance: added to 2X and 4X of standard BG-11
Experimental: as §2

[3] = test system: Synechocystis sp. PCC 6803; test: Growth in calcium-enhanced media up to about one hundred times BG-11 calcium; assay type: cell-based; details: calcium up to about one hundred times standard BG-11 (up to ~25 mM)
Experimental: For large-scale production of fatty acids, calcium (and/or magnesium) supplementation would allow for fatty acids to accumulate during a production phase to be harvested one or more times in a non-continuous mode. Calcium concentrations up to about one hundred times the concentration of calcium in standard BG-11 medium (that is, up to ˜25 mM) have been tested on Synechocystis sp.

[4] = calcium at double the BG-11 recipe (approximately 0.5 mM)

SMILES	culture survival (PH-SGI-E-0166)	time cultures continued to grow and stayed green (PH-SGI-E-0159)	effect on free fatty acid tolerance / viability [1]	added tolerance, more free fatty acid tolerated [1, 4]	effect on free fatty acid tolerance [2]	added tolerance, more free fatty acid tolerated [2, 4]	growth defects in calcium-enhanced media [3]
[Ca+2].[Cl-].[Cl-] [calcium, calcium chloride]	survived	at least 31 days	increased free fatty acid tolerance	up to 100 mg/L	increased free fatty tolerance	up to 100 mg/L	no growth defects
[Cl-].[Cl-].[Mg+2] [magnesium, MgCl2]			no discernible protective effect		increased free fatty tolerance		
